Measured values: ChEMBL document CHEMBL3526118, “Combination of GSH trapping and time-dependent inhibition assays as a predictive method of drugs generating highly reactive metabolites” (Drug Metab Dispos, 2011)

Key:
CYP1A2 = biological target: T1, CYP1A2 (Homo sapiens, UniProt P05177); test: in vitro
T1 sequence (P05177 whole entry): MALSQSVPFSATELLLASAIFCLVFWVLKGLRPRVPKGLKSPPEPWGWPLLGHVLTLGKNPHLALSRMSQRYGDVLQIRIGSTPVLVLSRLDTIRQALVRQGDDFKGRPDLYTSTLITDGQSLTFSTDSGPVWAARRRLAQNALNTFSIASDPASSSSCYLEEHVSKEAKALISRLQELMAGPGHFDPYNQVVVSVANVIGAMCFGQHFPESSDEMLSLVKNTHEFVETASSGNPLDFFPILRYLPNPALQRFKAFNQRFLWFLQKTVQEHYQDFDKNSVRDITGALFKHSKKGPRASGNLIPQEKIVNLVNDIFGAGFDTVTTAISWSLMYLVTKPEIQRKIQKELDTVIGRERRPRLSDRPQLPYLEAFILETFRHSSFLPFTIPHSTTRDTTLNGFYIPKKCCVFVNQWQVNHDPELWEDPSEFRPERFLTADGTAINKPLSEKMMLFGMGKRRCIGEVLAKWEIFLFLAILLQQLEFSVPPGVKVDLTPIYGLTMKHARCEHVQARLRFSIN

CYP2D6 = CYP2D6 (Homo sapiens, UniProt P10635); test: in vitro
Sequence of CYP2D6 (P10635 whole entry): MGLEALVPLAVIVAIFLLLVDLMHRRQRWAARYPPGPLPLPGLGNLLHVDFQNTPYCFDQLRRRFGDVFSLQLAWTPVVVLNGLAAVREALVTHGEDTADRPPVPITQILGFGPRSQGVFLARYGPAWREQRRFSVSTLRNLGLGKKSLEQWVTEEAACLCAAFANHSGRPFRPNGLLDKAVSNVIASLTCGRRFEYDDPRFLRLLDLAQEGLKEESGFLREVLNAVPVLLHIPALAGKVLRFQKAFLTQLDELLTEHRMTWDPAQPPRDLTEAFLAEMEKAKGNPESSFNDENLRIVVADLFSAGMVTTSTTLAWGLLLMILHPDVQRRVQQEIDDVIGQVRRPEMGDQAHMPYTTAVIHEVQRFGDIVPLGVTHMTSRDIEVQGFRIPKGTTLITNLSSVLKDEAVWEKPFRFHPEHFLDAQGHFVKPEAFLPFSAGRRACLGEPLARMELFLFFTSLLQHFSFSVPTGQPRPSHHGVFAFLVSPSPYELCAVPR

CYP2C8 = biological target: T2, CYP2C8 (Homo sapiens, UniProt P10632); test: in vitro
T2 sequence (P10632 whole entry): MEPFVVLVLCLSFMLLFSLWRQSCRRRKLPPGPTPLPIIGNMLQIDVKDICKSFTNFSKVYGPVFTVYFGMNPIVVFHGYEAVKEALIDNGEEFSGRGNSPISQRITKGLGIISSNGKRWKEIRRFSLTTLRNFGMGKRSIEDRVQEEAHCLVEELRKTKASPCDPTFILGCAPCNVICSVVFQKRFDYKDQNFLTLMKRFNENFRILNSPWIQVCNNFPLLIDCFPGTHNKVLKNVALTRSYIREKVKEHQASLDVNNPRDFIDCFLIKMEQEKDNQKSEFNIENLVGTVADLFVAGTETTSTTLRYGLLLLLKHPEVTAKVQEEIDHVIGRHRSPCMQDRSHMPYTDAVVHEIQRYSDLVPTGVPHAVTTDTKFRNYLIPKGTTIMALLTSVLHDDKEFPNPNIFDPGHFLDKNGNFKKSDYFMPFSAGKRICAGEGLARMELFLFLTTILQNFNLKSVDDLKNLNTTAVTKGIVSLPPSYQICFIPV

CYP2B6 = biological target: T3, CYP2B6 (Homo sapiens, UniProt P20813); test: in vitro
T3 sequence (P20813 whole entry): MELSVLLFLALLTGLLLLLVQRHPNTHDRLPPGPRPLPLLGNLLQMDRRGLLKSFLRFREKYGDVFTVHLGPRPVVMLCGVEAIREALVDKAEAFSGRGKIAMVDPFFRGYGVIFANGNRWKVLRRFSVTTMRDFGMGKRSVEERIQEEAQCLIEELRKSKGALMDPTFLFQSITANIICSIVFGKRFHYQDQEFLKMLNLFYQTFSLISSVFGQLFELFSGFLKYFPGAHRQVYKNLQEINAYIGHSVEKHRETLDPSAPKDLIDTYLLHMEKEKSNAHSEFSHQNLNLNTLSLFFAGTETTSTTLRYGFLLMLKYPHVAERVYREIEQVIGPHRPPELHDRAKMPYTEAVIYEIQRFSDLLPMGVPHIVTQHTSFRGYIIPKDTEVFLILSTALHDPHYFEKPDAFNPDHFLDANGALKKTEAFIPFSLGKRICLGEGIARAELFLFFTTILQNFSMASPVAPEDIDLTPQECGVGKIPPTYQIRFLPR

CYP2C9 = CYP2C9 (Homo sapiens, UniProt P11712); test: in vitro
Sequence of CYP2C9 (P11712 whole entry): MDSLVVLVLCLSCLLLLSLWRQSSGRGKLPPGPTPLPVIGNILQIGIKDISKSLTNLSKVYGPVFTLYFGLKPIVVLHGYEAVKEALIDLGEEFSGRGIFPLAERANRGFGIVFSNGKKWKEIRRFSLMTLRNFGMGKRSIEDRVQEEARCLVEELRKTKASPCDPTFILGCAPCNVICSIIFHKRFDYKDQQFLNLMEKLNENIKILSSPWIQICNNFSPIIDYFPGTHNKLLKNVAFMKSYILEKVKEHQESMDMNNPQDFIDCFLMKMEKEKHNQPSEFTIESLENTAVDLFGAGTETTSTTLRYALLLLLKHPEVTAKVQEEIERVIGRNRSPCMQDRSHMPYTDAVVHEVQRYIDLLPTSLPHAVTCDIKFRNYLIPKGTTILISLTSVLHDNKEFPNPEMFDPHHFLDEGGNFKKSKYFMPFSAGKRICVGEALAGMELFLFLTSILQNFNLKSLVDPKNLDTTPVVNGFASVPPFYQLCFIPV

Liver microsome [1] = test: Covalent binding in human liver microsomes measured per mg of protein using radiolabelled compound at 10 uM after 1 hr incubation by liquid scintillation counting
CYP3A4 = CYP3A4 (Homo sapiens, UniProt P08684); test: in vitro
Sequence of CYP3A4 (P08684 whole entry): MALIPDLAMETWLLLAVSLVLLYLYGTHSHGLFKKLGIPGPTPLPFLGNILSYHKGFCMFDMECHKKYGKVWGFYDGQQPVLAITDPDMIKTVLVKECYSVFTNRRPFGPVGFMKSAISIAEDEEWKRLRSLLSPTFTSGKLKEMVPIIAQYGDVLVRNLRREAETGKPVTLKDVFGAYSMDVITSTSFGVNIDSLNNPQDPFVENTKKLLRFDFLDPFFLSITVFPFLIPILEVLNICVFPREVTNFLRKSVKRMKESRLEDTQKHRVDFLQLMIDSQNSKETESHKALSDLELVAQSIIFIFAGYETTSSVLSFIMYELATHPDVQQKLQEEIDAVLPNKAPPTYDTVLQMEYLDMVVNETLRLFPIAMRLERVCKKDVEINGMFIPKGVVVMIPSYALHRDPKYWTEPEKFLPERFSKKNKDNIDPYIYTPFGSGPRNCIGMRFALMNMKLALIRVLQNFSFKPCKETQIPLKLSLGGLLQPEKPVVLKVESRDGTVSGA

Liver microsome [2] = test: Metabolic activation in human liver microsomes assessed as [3H]GSH adduct formation rate measured per mg of protein at 100 uM by [3H]GSH trapping assay
CYP2C19 = CYP2C19 (Homo sapiens, UniProt P33261); test: in vitro
Sequence of CYP2C19 (P33261 whole entry): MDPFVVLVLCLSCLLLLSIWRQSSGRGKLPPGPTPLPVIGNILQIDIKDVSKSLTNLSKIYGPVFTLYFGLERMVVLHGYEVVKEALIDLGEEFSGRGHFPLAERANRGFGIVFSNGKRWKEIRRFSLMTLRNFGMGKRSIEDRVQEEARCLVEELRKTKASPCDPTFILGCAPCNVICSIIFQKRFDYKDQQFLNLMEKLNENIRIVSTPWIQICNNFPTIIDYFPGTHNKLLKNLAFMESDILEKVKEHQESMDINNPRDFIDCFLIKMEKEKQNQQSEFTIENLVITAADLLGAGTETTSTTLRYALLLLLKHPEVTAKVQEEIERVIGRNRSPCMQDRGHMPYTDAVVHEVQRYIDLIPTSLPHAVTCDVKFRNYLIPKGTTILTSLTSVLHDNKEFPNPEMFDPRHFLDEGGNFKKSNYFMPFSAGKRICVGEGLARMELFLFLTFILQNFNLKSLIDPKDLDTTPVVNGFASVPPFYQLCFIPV

SMILES	inhibition at 100 µM (CYP1A2) [%]	inhibition at 100 µM (CYP2D6) [%]	inhibition at 100 µM (CYP2C8) [%]	inhibition at 100 µM (CYP2B6) [%]	inhibition at 100 µM (CYP2C9) [%]	PB (Liver microsome [1]) [pmol]	inhibition at 100 µM (CYP3A4) [%]	Drug metabolism (Liver microsome [2])	inhibition at 100 µM (CYP2C19; microsomes) [%]	inhibition at 100 µM (CYP2C19; human liver microsomes) [%]
CN1CCN(C2=Nc3cc(Cl)ccc3Nc3ccccc32)CC1 [CLOZAPINE]	12	< 10	< 10	< 10	< 10					
Cc1c(N(C)C)c(=O)n(-c2ccccc2)n1C [AMINOPYRINE]	< 10	< 10	< 10	< 10	< 10	30.9	< 10	metabolite_not_detected	< 10	
CCN(CC)CCNC(=O)c1ccc(N)cc1 [PROCAINAMIDE]	< 10	< 10	< 10	< 10	< 10	5.1	< 10	41.3 pmol/min		
CC(C)c1c(C(=O)Nc2ccccc2)c(-c2ccccc2)c(-c2ccc(F)cc2)n1CC[C@@H](O)C[C@@H](O)CC(=O)O [ATORVASTATIN]			< 10	< 10		352.3		12.7 pmol/min		
Cn1c(=O)c2c(ncn2C)n(C)c1=O [CAFFEINE]	< 10	< 10	< 10	< 10	< 10	9.9	< 10	metabolite_not_detected		< 10
CCCCC(=O)N(Cc1ccc(-c2ccccc2-c2nnn[nH]2)cc1)[C@H](C(=O)O)C(C)C	< 10	< 10	< 10	< 10	< 10	1.4	< 10	metabolite_not_detected		< 10
Cc1cc(NS(=O)(=O)c2ccc(N)cc2)no1 [SULFAMETHOXAZOLE]			< 10	< 10						
Cc1cc(CC(=O)O)n(C)c1C(=O)c1ccc(Cl)cc1 [ZOMEPIRAC]	< 10	< 10	< 10	< 10	< 10	6.4	< 10	metabolite_not_detected	< 10	
COc1cc2c(cc1OC)C(=O)C(CC1CCN(Cc3ccccc3)CC1)C2 (stereo not given) [DONEPEZIL]						29.7		metabolite_not_detected		
COc1ccc(CCN(C)CCCC(C#N)(c2ccc(OC)c(OC)c2)C(C)C)cc1OC (stereo not given)	< 10	< 10	< 10	10	< 10		51		< 10	
C[C@H]1COc2c(N3CCN(C)CC3)c(F)cc3c(=O)c(C(=O)O)cn1c23.C[C@H]1COc2c(N3CCN(C)CC3)c(F)cc3c(=O)c(C(=O)O)cn1c23.O [LEVOFLOXACIN]	< 10	< 10	< 10	< 10	< 10			metabolite_not_detected		< 10
CN(C)CCCN1c2ccccc2CCc2ccccc21 [IMIPRAMINE]	< 10	< 10	< 10	< 10	< 10		< 10			
CCCC(CCC)C(=O)O [VALPROIC ACID]	< 10	< 10	< 10	< 10	< 10		< 10			
NS(=O)(=O)c1cc(C(=O)O)c(NCc2ccco2)cc1Cl [FUROSEMIDE]			< 10	< 10						
